The results in this text go back to ChEMBL document CHEMBL1124718, “Synthesis and structure-activity relationship of C5-substituted analogues of (+-)-10,11-dihydro-5H-dibenzo[a,d]cyclohepten-5,10-imine [(+-)-desmethyl-MK801]: ligands for the NMDA receptor-coupled phencyclidine binding site” (J Med Chem, 1990).

The target in this assay is Glutamate receptor ionotropic, NMDA 1 (Rattus norvegicus, UniProt P35439). Briefly: Ability to displace [3H]TCP from high affinity PCP N-methyl-D-aspartate glutamate receptor in rat brain homogenates in vitro was determined. Type of assay: tissue-based.
In the case of `CCC12NC(Cc3ccccc31)c1ccccc12` (configuration not stated), the Ki (as a rule, a dissociation constant, usually derived from enzyme kinetics or from competition with a known ligand) worked out at 12 nM. This lies in the double-digit nanomolar range.

Consider `c1ccc2c(c1)CC1NC2c2ccccc21` (configuration not stated), for which the affinity corresponds to a Ki of 120 nM. This Ki is about 10-fold higher than that of the compound before.

On to `N#CCC12NC(Cc3ccccc31)c1ccccc12` (configuration not stated), for which the Ki worked out at 967 nM.

Turning to `CCCCCCC12NC(Cc3ccccc31)c1ccccc12` (configuration not stated), the affinity corresponds to a Ki of 980 nM.

Compound `c1ccc(COCC23NC(Cc4ccccc42)c2ccccc23)cc1` (configuration not stated) registered a Ki of 10000 nM.

For the compound `ClCC12NC(Cc3ccccc31)c1ccccc12` (configuration not stated), the Ki was found to be 12 nM.

The compound `O=C(O)C12NC(Cc3ccccc31)c1ccccc12` (configuration not stated) had a Ki of 32300 nM.

The compound `NCC12NC(Cc3ccccc31)c1ccccc12` (configuration not stated) showed an inhibition constant (Ki) of 117 nM.

Consider `NCCC12NC(Cc3ccccc31)c1ccccc12` (configuration not stated), for which the affinity, expressed as Ki, was 20 nM.

Regarding `NC(=O)C12NC(Cc3ccccc31)c1ccccc12` (configuration not stated), the inhibition constant Ki worked out at 11300 nM.

`BrCC12NC(Cc3ccccc31)c1ccccc12` (configuration not stated) gave a Ki of 33 nM.

In turn, `COCC12NC(Cc3ccccc31)c1ccccc12` (configuration not stated) returned a Ki of 300 nM.

In turn, `CCCC12NC(Cc3ccccc31)c1ccccc12` (configuration not stated) gave a Ki of 1100 nM.

`C=CCC12NC(Cc3ccccc31)c1ccccc12` (configuration not stated): affinity was put at a Ki of 70 nM.

As for `IC12NC(Cc3ccccc31)c1ccccc12` (configuration not stated), the inhibition constant (Ki) turned out to be 430 nM.

`CCCCCCCCCCC12NC(Cc3ccccc31)c1ccccc12` (configuration not stated) yielded an inhibitory constant (Ki) of 21600 nM.

Consider `OCC12NC(Cc3ccccc31)c1ccccc12` (configuration not stated), for which the Ki amounted to 40 nM. This Ki lies about 540-fold lower than the previous one.
